Assay results published in US20250223303A1, “TRICYCLIC BORONIC ACID DERIVATIVE, AND PREPARATION METHOD THEREFOR AND APPLICATION THEREOF” (priority 2021, published 2025).

Key:
[1] = tested on: Escherichia coli ARLG 2829; assay: MIC test of compounds in combination with antibiotics, Escherichia coli ARLG 2829; conditions: for MIC of biapenem in combination with compound, Escherichia coli ARLG-2829 NDM-5, OXA-1: Biapenem + compound (8 μg/mL); for MIC of meropenem in combination with compound, Escherichia coli ARLG-2829 NDM-5, OXA-1: Meropenem + compound (8 μg/mL)
[2] = tested on: Klebsiella pneumoniae ARLG 1196; assay: MIC test of compounds in combination with antibiotics, Klebsiella pneumoniae ARLG 1196; conditions: for MIC of biapenem in combination with compound, Klebsiella pneumoniae ARLG-1196 CTM-1 group, SHV, NDM, TEM: Biapenem + compound (8 μg/mL); for MIC of meropenem in combination with compound, Klebsiella pneumoniae ARLG-1196 CTM-1 group, SHV, NDM, TEM: Meropenem + compound (8 μg/mL)
Protocol: (§1) Strain preparation: the strains to be tested were streaked from glycerol tube at −80° C. onto Mueller Hinton II Agar plates. The plates were then placed in a 37° C. incubator and cultured for 18-24 hours.
(§2) Media preparation: CAMHB (Mueller Hinton II Broth): 22 g of powder was dissolved in 1 L of purified water and sterilized at 121° C. for 10 min for use. Saline: 8.5 g NaCl was dissolved in 1 L of pure water and sterilized at 121° C. for 30 min for use.
(§3) Preparation of compound and antibiotic stock solutions: the compound and antibiotic were dissolved in DMSO or water to 12.8 mg/mL.
(§4) 2-Fold gradient dilution of antibiotics: 300 μL of CAMHVIB medium was added to columns 2-12 of a 96-deep well plate. In column 1, 24 μL of antibiotic stock solution and 576 µL of CAMHB medium were added and mixed well, with a concentration of 512 μg/mL. 300 µL of antibiotic solution was transferred from the column 1 to the second column and mixed well. The process was repeated until column 11, and the column 12 was a blank control.
(§5) Dilution of combined compounds: the compound was diluted 400-fold to 32 μg/ml with CAMHB medium.
(§6) Working solution aliquoting: 25 μL of antibiotics was aliquoted into the 96-U bottom plate with a pipette, and 25 μL of combined compound was added to each well. If antibiotics were used alone, 25 μL of CAMHB medium was added.
(§7) Inoculum solution preparation: 5-6 single colonies were selected from the plate and suspended in normal saline. The bacterial suspension was adjusted to 0.2 (i.e., 0.5 McFarland turbidity, with a bacterial concentration was about 1 to 2×10^8 CFU/mL) with a turbidity meter. The bacterial suspension was diluted 100-fold with CAMHB medium for later use.
(§8) Inoculation: 50 μL of inoculum solution was transferred to the above 50 μL compound plate with a pipette.
(§9) Culture: The 96-U bottom plate was placed in an incubator at 37° C. for 18 to 20 h.
(§10) After the incubation, bacterial growth was visually observed, and the test plate was photographed and recorded.

[3] = tested on: Klebsiella pneumoniae ATCC BAA-2470; assay: MIC test of compounds in combination with antibiotics, Klebsiella pneumoniae ATCC BAA-2470; conditions: for MIC of biapenem in combination with compound, Klebsiella pneumoniae ATCC BAA-2470 NDM-1: Biapenem + compound (8 μg/mL); for MIC of meropenem in combination with compound, Klebsiella pneumoniae ATCC BAA-2470 NDM-1: Meropenem + compound (8 μg/mL)
Protocol: as §1, §2, §3, §4, §5, §6, §7, §8, §9, §10

[4] = tested on: Klebsiella pneumoniae ATCC BAA-1705; assay: MIC test of compounds in combination with antibiotics, Klebsiella pneumoniae ATCC BAA-1705; conditions: for MIC of biapenem in combination with compound, Klebsiella pneumoniae ATCC BAA-1705 KPC-2: Biapenem + compound (8 μg/mL); for MIC of meropenem in combination with compound, Klebsiella pneumoniae ATCC BAA-1705 KPC-2: Meropenem + compound (8 μg/mL)
Protocol: as §1, §2, §3, §4, §5, §6, §7, §8, §9, §10

[5] = tested on: Acinetobacter baumannii WX-AB005; assay: MIC test of compounds in combination with antibiotics, Acinetobacter baumannii WX-AB005; conditions: for MIC of biapenem in combination with compound, Acinetobacter baumannii WX-AB005: Biapenem + compound (8 μg/mL); for MIC of meropenem in combination with compound, Acinetobacter baumannii WX-AB005: Meropenem + compound (8 μg/mL)
Protocol: as §4, §5, §6, §7, §8, §9

[6] = tested on: Acinetobacter baumannii WX-AB013; assay: MIC test of compounds in combination with antibiotics, Acinetobacter baumannii WX-AB013; conditions: for MIC of biapenem in combination with compound, Acinetobacter baumannii WX-AB013: Biapenem + compound (8 μg/mL); for MIC of meropenem in combination with compound, Acinetobacter baumannii WX-AB013: Meropenem + compound (8 μg/mL)
Protocol: as §4, §5, §6, §7, §8, §9

[7] = tested on: Acinetobacter baumannii ARLG-1791 OXA-23; assay: MIC test of compounds in combination with antibiotics, Acinetobacter baumannii ARLG-1791; conditions: for MIC of biapenem in combination with compound, Acinetobacter baumannii ARLG-1791 OXA-23: Biapenem + compound (8 μg/mL); for MIC of meropenem in combination with compound, Acinetobacter baumannii ARLG-1791 OXA-23: Meropenem + compound (8 μg/mL)
[8] = tested on: Acinetobacter baumannii ARLG-1809 OXA-23; assay: MIC test of compounds in combination with antibiotics, Acinetobacter baumannii ARLG-1809; conditions: for MIC of biapenem in combination with compound, Acinetobacter baumannii ARLG-1809 OXA-23: Biapenem + compound (8 μg/mL); for MIC of meropenem in combination with compound, Acinetobacter baumannii ARLG-1809 OXA-23: Meropenem + compound (8 μg/mL)
[9] = tested on: Acinetobacter baumannii ARLG-1852 OXA-23; assay: MIC test of compounds in combination with antibiotics, Acinetobacter baumannii ARLG-1852; conditions: for MIC of biapenem in combination with compound, Acinetobacter baumannii ARLG-1852 OXA-23: Biapenem + compound (8 μg/mL); for MIC of meropenem in combination with compound, Acinetobacter baumannii ARLG-1852 OXA-23: Meropenem + compound (8 μg/mL)
[10] = tested on: Acinetobacter baumannii ARLG-1853 OXA-23; assay: MIC test of compounds in combination with antibiotics, Acinetobacter baumannii ARLG-1853; conditions: for MIC of biapenem in combination with compound, Acinetobacter baumannii ARLG-1853 OXA-23: Biapenem + compound (8 μg/mL); for MIC of meropenem in combination with compound, Acinetobacter baumannii ARLG-1853 OXA-23: Meropenem + compound (8 μg/mL)

Structure (SMILES) | MIC of biapenem in combination with compound, Escherichia coli ARLG-2829 NDM-5, OXA-1 [1] [µg/mL] | MIC of meropenem in combination with compound, Escherichia coli ARLG-2829 NDM-5, OXA-1 [1] [µg/mL] | MIC of biapenem in combination with compound, Klebsiella pneumoniae ARLG-1196 CTM-1 group, SHV, NDM, TEM [2] [µg/mL] | MIC of meropenem in combination with compound, Klebsiella pneumoniae ARLG-1196 CTM-1 group, SHV, NDM, TEM [2] [µg/mL] | MIC of biapenem in combination with compound, Klebsiella pneumoniae ATCC BAA-2470 NDM-1 [3] [µg/mL] | MIC of meropenem in combination with compound, Klebsiella pneumoniae ATCC BAA-2470 NDM-1 [3] [µg/mL] | MIC of biapenem in combination with compound, Klebsiella pneumoniae ATCC BAA-1705 KPC-2 [4] [µg/mL] | MIC of meropenem in combination with compound, Klebsiella pneumoniae ATCC BAA-1705 KPC-2 [4] [µg/mL] | MIC of biapenem in combination with compound, Acinetobacter baumannii WX-AB005 [5] [µg/mL] | MIC of meropenem in combination with compound, Acinetobacter baumannii WX-AB005 [5] [µg/mL] | MIC of biapenem in combination with compound, Acinetobacter baumannii WX-AB013 [6] [µg/mL] | MIC of meropenem in combination with compound, Acinetobacter baumannii WX-AB013 [6] [µg/mL] | MIC of biapenem in combination with compound, Acinetobacter baumannii ARLG-1791 OXA-23 [7] [µg/mL] | MIC of meropenem in combination with compound, Acinetobacter baumannii ARLG-1791 OXA-23 [7] [µg/mL] | MIC of biapenem in combination with compound, Acinetobacter baumannii ARLG-1809 OXA-23 [8] [µg/mL] | MIC of meropenem in combination with compound, Acinetobacter baumannii ARLG-1809 OXA-23 [8] [µg/mL] | MIC of biapenem in combination with compound, Acinetobacter baumannii ARLG-1852 OXA-23 [9] [µg/mL] | MIC of meropenem in combination with compound, Acinetobacter baumannii ARLG-1852 OXA-23 [9] [µg/mL] | MIC of biapenem in combination with compound, Acinetobacter baumannii ARLG-1853 OXA-23 [10] [µg/mL] | MIC of meropenem in combination with compound, Acinetobacter baumannii ARLG-1853 OXA-23 [10] [µg/mL]
CC(Sc1ccc2c(c1C(=O)O)OB(O)C1CC21)C1CC1 (single isomer, unassigned) [Compound 16-b] | 0.5 | 16 | 0.5 | 8 | 1 | 16 | 0.25 | 2 | 4 | 8 | 2 | 4 | 1 | 8 | 2 | 4 | 0.5 | 4 | 1 | 8
NC1COCC1Sc1ccc2c(c1C(=O)O)OB(O)C1CC21 (single isomer, unassigned) [Compound 11_P1] | 0.25 | ≤0.125 | 0.25 | 0.5 | 0.25 | ≤0.125 | ≤0.125 | ≤0.125 | 1 | 4 | 0.5 | 2 | 0.25 | 2 | 0.5 | 2 | 0.25 | 1 | ≤0.125 | 2
CC(Sc1ccc2c(c1C(=O)O)OB(O)C1CC21)C1CC1 (single isomer, unassigned) [Compound 16-c] | ≤0.125 | 4 | 1 | 2 | 0.5 | 8 | 1 | 8 | 4 | 8 | 2 | 4 | 1 | 8 | 2 | 4 | 1 | 4 | 1 | 4
